The test system of one data set is HaCat cells. Briefly: m6A methylation level of human HaCat keratinocytes, EpiQuik m6A RNA methylation quantification kit (Example 20). Type of data set: cell-based. The essentials: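 HaCat keratinocytes in DMEM/10% FBS given 50 nM sorafenib, capecitabine, docetaxel or osimertinib, then 400 nM test compound or nicotinamide, and cultured 24 hours at 37° C. Total RNA m6A quantified by EpiQuik ELISA at 450 nm against a standard curve, expressed as percentage of RNA input.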

A further data set deals with paw plantar skin of rats. Briefly: Rat models with hand-foot skin reaction, topical ointment (Example 22). In kind it is in vivo, SD rats. Particulars: for Incidence rate: 30 days.
Where [1] appears, read: paw plantar skin of modeled rats, topical ointment.

The structures appear in SMILES notation.

Consider `NC(=O)[C@H]1CCCc2c1[nH]c1ccc(Cl)cc21` [Compound 2b, (S)-6-chloro-2,3,4,9-tetrahydro-1H-carbazole-1-carboxamide], for which the “abnormal increase in the RNA m6A level of human keratinocytes caused by chemotherapeutic drugs and multikinase inhibitors” value with HaCat cells (400 nM compound after 50 nM drug) was “effectively inhibit”. Moreover, the “m6A fold change relative to control group 1” value amounted to 1.1 in the data set with HaCat cells (HaCat cells, 50 nM capecitabine + 400 nM test compound, 24 hours); 1.0 in the data set on HaCat cells (HaCat cells, 50 nM docetaxel + 400 nM test compound, 24 hours); 1.2 with HaCat cells (HaCat cells, 50 nM osimertinib + 400 nM test compound, 24 hours); 1.4 in the data set with HaCat cells (HaCat cells, 50 nM sorafenib + 400 nM test compound, 24 hours). Further, the Incidence rate is on record as 3/12 (25%) with paw plantar skin of rats (afatinib 50 mg/kg, 1% compound ointment on left paw, left paw); 9/12 (75%) with paw plantar skin of rats (afatinib 50 mg/kg, 1% compound ointment on left paw, right paw (blank matrix ointment)); 2/12 (17%) with paw plantar skin of rats (afatinib 50 mg/kg, 3% compound ointment on left paw, left paw); 4/12 (33%) in the data set with paw plantar skin of rats (afatinib 50 mg/kg, 3% compound ointment on left paw, right paw (blank matrix ointment)); 0/12 (0%) in the data set on paw plantar skin of rats (afatinib 50 mg/kg, 10% compound ointment on left paw, left paw); 3/12 (25%) in the data set with paw plantar skin of rats (afatinib 50 mg/kg, 10% compound ointment on left paw, right paw (blank matrix ointment)). Moreover, the Incidence rate is on record as 3/12 (25%) in the data set on paw plantar skin of rats (erlotinib 70 mg/kg, 1% compound ointment on left paw, left paw); 10/12 (83%) in the data set with paw plantar skin of rats (erlotinib 70 mg/kg, 1% compound ointment on left paw, right paw (blank matrix ointment)); 2/12 (17%) with paw plantar skin of rats (erlotinib 70 mg/kg, 3% compound ointment on left paw, left paw); 5/12 (42%) in the data set on paw plantar skin of rats (erlotinib 70 mg/kg, 3% compound ointment on left paw, right paw (blank matrix ointment)); 1/12 (8%) in the data set on paw plantar skin of rats (erlotinib 70 mg/kg, 10% compound ointment on left paw, left paw); 4/12 (33%) in the data set on paw plantar skin of rats (erlotinib 70 mg/kg, 10% compound ointment on left paw, right paw (blank matrix ointment)). Moreover, the Incidence rate with paw plantar skin of rats (osimertinib 60 mg/kg, 1% compound ointment on left paw, left paw) is listed as 2/12 (17%); with paw plantar skin of rats (osimertinib 60 mg/kg, 1% compound ointment on left paw, right paw (blank matrix ointment)), 8/12 (67%); in the data set with paw plantar skin of rats (osimertinib 60 mg/kg, 3% compound ointment on left paw, left paw), 2/12 (17%); in the data set on paw plantar skin of rats (osimertinib 60 mg/kg, 3% compound ointment on left paw, right paw (blank matrix ointment)), 4/12 (33%); in the data set with paw plantar skin of rats (osimertinib 60 mg/kg, 10% compound ointment on left paw, left paw), 0/12 (0%); in the data set on paw plantar skin of rats (osimertinib 60 mg/kg, 10% compound ointment on left paw, right paw (blank matrix ointment)) it was 3/12 (25%). Besides, the Incidence rate with paw plantar skin of rats (sorafenib 100 mg/kg, 1% compound ointment on left paw, left paw) is on record as 2/12 (17%); in the data set with paw plantar skin of rats (sorafenib 100 mg/kg, 1% compound ointment on left paw, right paw (blank matrix ointment)), 9/12 (75%); with paw plantar skin of rats (sorafenib 100 mg/kg, 3% compound ointment on left paw, left paw), 2/12 (17%); with paw plantar skin of rats (sorafenib 100 mg/kg, 3% compound ointment on left paw, right paw (blank matrix ointment)), 4/12 (33%); in the data set on paw plantar skin of rats (sorafenib 100 mg/kg, 10% compound ointment on left paw, left paw), 0/12 (0%); with paw plantar skin of rats (sorafenib 100 mg/kg, 10% compound ointment on left paw, right paw (blank matrix ointment)) it was 4/12 (33%). Besides, in the data set with paw plantar skin of rats (compounds at a mass content of 1% in ointment), the “incidence rate of hand-foot skin reaction at a drug application site” value is “significantly decrease”. The “incidence rate of hand-foot skin reaction in all paws of the rats” value with paw plantar skin of rats (compounds at mass contents of 3% and 10% in ointment) is listed as “significantly decrease”. Moreover, the “formation of blisters, inflammatory cell infiltration in the dermis and skin congestion (pathological scoring)” value in the data set on paw plantar skin of rats (setting [1]) was “effectively improve”. Further, the “formation of blisters, inflammatory cell infiltration in the dermis and skin congestion (tissue staining)” value with paw plantar skin of rats (setting [1]) was “effectively improve”. For the same molecule, in the data set on paw plantar skin of rats (summary of Examples 21 and 22), the “differentiation of keratinocytes both in vitro and in vivo” value is reported as “effectively inhibit”. Also, the “stratum corneum thickness of the paw plantar skin of the modeled rats” value with paw plantar skin of rats (topical ointment, modeled rats) is “effectively decrease”.

As to `C=CC(=O)Nc1cc(Nc2nccc(-c3cn(C)c4ccccc34)n2)c(OC)cc1N(C)CCN(C)C` [Osimertinib, osimertinib, reference compound], in the data set on HaCat cells (50 nM drug alone), the “m6A methylation level of human HaCat keratinocytes” value is reported as “significantly increase”. Moreover, the fold induction at 0.05 µM in the data set on HaCat cells (Homo sapiens, HaCat cells, 50 nM drug alone, 24 hours, read-out: m6A fold change relative to control group 1) was 4.8. In the data set on paw plantar skin of rats (rat, in vivo), the “KRT1 and Loricrin in tissues (immunohistochemical staining)” value is reported as “significantly increased”; the “stratum corneum thickness of the paw plantar skin” value was “significantly higher than that of normal rats”.

The values above are taken from patent US20260226006A1, “INDOLE COMPOUND, PREPARATION METHOD THEREFOR AND USE THEREOF” (SUZHOU MERNA THERAPEUTICS CO. LTD, priority 2023, published 2026).
